{"source": "patent US9802937B2", "about": "“Substituted pyrazolo{4,3-D}pyrimidines as kinase inhibitors” (ORIGENIS GMBH, priority 2011, dated 2017)"}
{"target": "T1, SYK kinase (Homo sapiens, UniProt P43405)", "T1 construct": "purchased Invitrogen, Carlsbad", "assay": "SYK Assay (OMNIA KINASE ASSAY, SOX peptide fluorescence)", "type": "biochemical", "conditions": "apparent Ki calculated from the IC50 using the Cheng-Prusoff equation; 1 mM ATP, 30° C.; read-out: SYK Activities: Ki", "method": "In the assay OMNIA® KINASE ASSAY by Invitrogen Corporation (Carlsbad) the effect of invention of a compound on the phosphorylation is determined by measurement of fluorescence intensity of a chelation-enhanced fluorophore called SOX. Upon phosphorylation of the peptide by the kinase of interest, Mg2+ is chelated to form a bridge between the SOX moiety and the phosphate group that is transferred to the specific tyrosine on the peptide. The fluorescence intensity is directly proportional to the amount of peptide phosphorylation.\nTo the wells of an 384 well small volume plate (Greiner, Frickenhausen) are added (i) the compound under test in 5% DMSO/distilled water (2 μl), (ii) 16 μl of the master mix containing ATP, DTT, Kinase Reaction Buffer, Omina Peptide Substrate Tyr 7 resulting in a final concentration of 1 mM ATP, 0.2 mM DTT and 10 μM Peptide Substrate.\nThe Master Mix and the assay plate was incubated to reaction temperature before the measurement (30° C.). The reaction was started with addition of (iii) 2 μl 4 μg/ml SYK kinase (Invitrogen, Carlsbad). During measurement fluorescence intensitiy readings were collected using a TECAN M1000 at a wavelength of λex 360/λem 485 nm every 30 s for 30 minutes. The reaction velocity was plotted versus the inhibitor concentration to determine the […] using XLFit 5.0 (IDBS, Guildford) to fit to a sigmoidal dose response curve, and the apparent Ki values were calculated from the IC50 using the Cheng-Prusoff equation (Cheng, Y.; Prusoff, W. H. Biochem. Pharmacol. 22, 3099-3108, 1973).", "units": {"Ki": "nM"}}
{"smiles": "Clc1cccc(-c2nc(Nc3ccc(N4CCOCC4)cc3)c3[nH]ncc3n2)c1", "note": "[Example #231, 5-(3-chlorophenyl)-N-(4-morpholinophenyl)-1H-pyrazolo[4,3-d]pyrimidin-7-amine]", "Ki": "10 to 100"}
{"smiles": "CN1CCC(c2nc(Nc3ccc(N4CCN(C)CC4)cc3)c3[nH]ncc3n2)CC1", "note": "[Example #53, N-(4-(4-methylpiperazin-1-yl)phenyl)-5-(1-methylpiperidin-4-yl)-1H-pyrazolo[4,3-d]pyrimidin-7-amine]", "Ki": "10 to 100"}
{"smiles": "CN(C)Cc1ccc(Nc2nc(-c3cccc(N)c3)nc3cn[nH]c23)cc1", "note": "[Example #309, 5-(3-aminophenyl)-N-(4-((dimethylamino)methyl)phenyl)-1H-pyrazolo[4,3-d]pyrimidin-7-amine]", "Ki": "10 to 100"}
{"smiles": "CN(C)CCNc1nc(C(=O)c2ccccc2)nc2cn[nH]c12", "note": "[Example #150, (7-((2-(dimethylamino)ethyl)amino)-1H-pyrazolo[4,3-d]pyrimidin-5-yl)(phenyl)methanone]", "Ki": "100 to 1000"}
{"smiles": "CN1CCC(c2nc(Nc3cccc(O)c3)c3[nH]ncc3n2)CC1", "note": "[Example #94, 3-((5-(1-methylpiperidin-4-yl)-1H-pyrazolo[4,3-d]pyrimidin-7-yl)amino)phenol]", "Ki": "10 to 100"}
{"smiles": "CC(C)(C#N)c1ccc(Nc2nc(-c3cccs3)nc3cn[nH]c23)cc1", "note": "[Example #167, 2-methyl-2-(4-((5-(thiophen-2-yl)-1H-pyrazolo[4,3-d]pyrimidin-7-yl)amino)phenyl)propanenitrile]", "Ki": "10 to 100"}
{"smiles": "COc1ccc(Nc2nc(-c3ccc(F)c(F)c3)nc3cn[nH]c23)cc1OC", "note": "[Example #272, 5-(3,4-difluorophenyl)-N-(3,4-dimethoxyphenyl)-1H-pyrazolo[4,3-d]pyrimidin-7-amine]", "Ki": "100 to 1000"}
{"smiles": "COc1ccc(Nc2nc(-c3cccc(SC)c3)nc3cn[nH]c23)cc1OC", "note": "[Example #223, N-(3,4-dimethoxyphenyl)-5-(3-(methylthio)phenyl)-1H-pyrazolo[4,3-d]pyrimidin-7-amine]", "Ki": "10 to 100"}
{"smiles": "COC(=O)c1cccc(-c2nc(Nc3ccc4c(c3)NC(=O)CS4)c3[nH]ncc3n2)c1", "note": "[Example #216, methyl 3-(7-((3-oxo-3,4-dihydro-2H-benzo[b][1,4]thiazin-6-yl)amino)-1H-pyrazolo[4,3-d]pyrimidin-5-yl)benzoate]", "Ki": "10 to 100"}
{"smiles": "Cc1cccc(NC(=O)Nc2ccc(Nc3nc(-c4ccsc4)nc4cn[nH]c34)cc2)c1", "note": "[Example #133, 1-(4-((5-(thiophen-3-yl)-1H-pyrazolo[4,3-d]pyrimidin-7-yl)amino)phenyl)-3-(m-tolyl)urea]", "Ki": "100 to 1000"}
{"smiles": "CC(=O)N1CCN(c2ccc(Nc3nc(-c4cccc(-c5nn[nH]n5)c4)nc4cn[nH]c34)cc2)CC1", "note": "[Example #192, 1-(4-(4-((5-(3-(2H-tetrazol-5-yl)phenyl)-1H-pyrazolo[4,3-d]pyrimidin-7-yl)amino)phenyl)piperazin-1-yl)ethan-1-one]", "Ki": "< 10"}
{"smiles": "c1cncc(-c2cccc(-c3nc(Nc4ccc5c(c4)NCCO5)c4[nH]ncc4n3)c2)c1", "note": "[Example #103, N-(5-(3-(pyridin-3-yl)phenyl)-1H-pyrazolo[4,3-d]pyrimidin-7-yl)-3,4-dihydro-2H-benzo[b][1,4]oxazin-6-amine]", "Ki": "10 to 100"}
{"smiles": "Cc1nc2cc(Nc3nc(-c4cccs4)nc4cn[nH]c34)ccc2[nH]1", "note": "[Example #245, N-(2-methyl-1H-benzo[d]imidazol-5-yl)-5-(thiophen-2-yl)-1H-pyrazolo[4,3-d]pyrimidin-7-amine]", "Ki": "< 10"}
{"smiles": "CN1CCN(c2ccc(Nc3nc(-c4cccc(CC(=O)O)c4)nc4cn[nH]c34)cc2)CC1", "note": "[Example #176, 2-(3-(7-((4-(4-methylpiperazin-1-yl)phenyl)amino)-1H-pyrazolo[4,3-d]pyrimidin-5-yl)phenyl)acetic acid]", "Ki": "10 to 100"}
{"smiles": "CN(C)S(=O)(=O)c1cccc(Nc2nc(-c3cccs3)nc3cn[nH]c23)c1", "note": "[Example #264, N,N-dimethyl-3-((5-(thiophen-2-yl)-1H-pyrazolo[4,3-d]pyrimidin-7-yl)amino)benzenesulfonamide]", "Ki": "100 to 1000"}
{"smiles": "CCN1CCN(c2ccc(Nc3nc(-c4cc(OC)ccc4OC)nc4cn[nH]c34)cc2)CC1", "note": "[Example #122, 5-(2,5-dimethoxyphenyl)-N-(4-(4-ethylpiperazin-1-yl)phenyl)-1H-pyrazolo[4,3-d]pyrimidin-7-amine]", "Ki": "10 to 100"}
{"smiles": "Cc1ccc(CNCc2cccc(-c3nc(Nc4ccc(N5CCN(C)CC5)cc4)c4[nH]ncc4n3)c2)cc1", "note": "[Example #180, 5-(3-(((4-methylbenzyl)amino)methyl)phenyl)-N-(4-(4-methylpiperazin-1-yl)phenyl)-1H-pyrazolo[4,3-d]pyrimidin-7-amine]", "Ki": "10 to 100"}
{"smiles": "CC(=O)N1CCN(c2ccc(Nc3nc(-c4cnc5cc[nH]c5c4)nc4cn[nH]c34)cc2)CC1", "note": "[Example #256, 1-(4-(4-((5-(1H-pyrrolo[3,2-b]pyridin-6-yl)-1H-pyrazolo[4,3-d]pyrimidin-7-yl)amino)phenyl)piperazin-1-yl)ethan-1-one]", "Ki": "< 10"}
{"smiles": "CC(=O)N1CCN(c2ccc(Nc3nc(-c4ccc5c(c4)NC(=O)CO5)nc4cn[nH]c34)cc2)CC1", "note": "[Example #298, 6-(7-((4-(4-acetylpiperazin-1-yl)phenyl)amino)-1H-pyrazolo[4,3-d]pyrimidin-5-yl)-2H-benzo[b][1,4]oxazin-3(4H)-one]", "Ki": "< 10"}
{"smiles": "COc1ccc(Nc2nc(-c3cccc(S(C)(=O)=O)c3)nc3cn[nH]c23)cc1OC", "note": "[Example #249, N-(3,4-dimethoxyphenyl)-5-(3-(methylsulfonyl)phenyl)-1H-pyrazolo[4,3-d]pyrimidin-7-amine]", "Ki": "10 to 100"}
{"smiles": "COc1ccc(OC)c(-c2nc(Nc3ccc(OC)c(OC)c3)c3[nH]ncc3n2)c1", "note": "[Example #121, 5-(2,5-dimethoxyphenyl)-N-(3,4-dimethoxyphenyl)-1H-pyrazolo[4,3-d]pyrimidin-7-amine]", "Ki": "100 to 1000"}
{"smiles": "CN1CCN(c2ccc(Nc3nc(-c4ncc[nH]4)nc4cn[nH]c34)cc2)CC1", "note": "[Example #141, 5-(1H-imidazol-2-yl)-N-(4-(4-methylpiperazin-1-yl)phenyl)-1H-pyrazolo[4,3-d]pyrimidin-7-amine]", "Ki": "10 to 100"}
{"smiles": "CN1CCC(c2nc(Nc3ccc(Cl)cc3)c3[nH]ncc3n2)CC1", "note": "[Example #29, N-(4-chlorophenyl)-5-(1-methylpiperidin-4-yl)-1H-pyrazolo[4,3-d]pyrimidin-7-amine]", "Ki": "10 to 100"}
{"smiles": "c1ccc(-c2nc(Nc3cc[nH]n3)c3[nH]ncc3n2)cc1", "note": "[Example #38, 5-phenyl-N-(1H-pyrazol-3-yl)-1H-pyrazolo[4,3-d]pyrimidin-7-amine]", "Ki": "10 to 100"}
{"smiles": "COc1ccc(Nc2nc(-c3nc4ccccc4n3C)nc3cn[nH]c23)cc1OC", "note": "[Example #130, N-(3,4-dimethoxyphenyl)-5-(1-methyl-1H-benzo[d]imidazol-2-yl)-1H-pyrazolo[4,3-d]pyrimidin-7-amine]", "Ki": "100 to 1000"}
{"smiles": "CN1CCC(c2nc(Nc3ccc(N4CCCC4)cc3)c3[nH]ncc3n2)CC1", "note": "[Example #56, 5-(1-methylpiperidin-4-yl)-N-(4-(pyrrolidin-1-yl)phenyl)-1H-pyrazolo[4,3-d]pyrimidin-7-amine]", "Ki": "100 to 1000"}
{"smiles": "FC(F)(F)c1cccc(-c2nc(Nc3ccc(N4CCOCC4)cc3)c3[nH]ncc3n2)c1", "note": "[Example #229, N-(4-morpholinophenyl)-5-(3-(trifluoromethyl)phenyl)-1H-pyrazolo[4,3-d]pyrimidin-7-amine]", "Ki": "10 to 100"}
